According to patent US12508248B2, “Therapeutic agent for prototheca disease” (priority 2019, dated 2025):
Converted amounts (≈) assume the structure as drawn.

Experiments:
[1] = system: several strains of Prototheca wickerhamii and Prototheca zopfii; settings: previous study on susceptibility, Non-Patent Document 1; cited from earlier work
[2] = when administered to humans; cited from earlier work
[3] = system: Prototheca zopfii Genotype 2; test: Broth microdilution MIC assay, CLSI M27-A3 guideline; format: cell-based; settings: 32 degrees, 72 hours
Procedure: (§1) For Prototheca wickerhamii, isolates (1 cat strain and 2 dog strains) were obtained from dogs and cats suffering from a prototheca disease. For Prototheca zopfii, bovine prototheca mastitis isolates (Genotype 2, 10 strains) and environmental isolates (Genotype 1, 10 strains) were obtained. For Prototheca blaskeae, a prototheca mastitis isolate (1 strain) was obtained. For Prototheca zopfii, the drug susceptibility was tested also on Genotype 1 established strain (SAG20063^T) and Genotype 2 established strain (SAG2021^T).
(§2) The isolates were maintained on Yeast Extract-Peptone-Dextrose agar (YPD: 1% yeast extract, 2% peptone, 2% dextrose, 2% agar) and tested for antifungal susceptibility. The susceptibility of the isolates to the antifungal agents itraconazole (ITZ, Merck KGA) and ravuconazole (RVZ, selenium pharma) was measured using a trace liquid dilution method (broth microdilution assay) according to the CLSI M27-A3 guideline. The minimum inhibitory concentration (MIC) was measured after culturing at 32 degrees for 72 hours. MIC was defined as the lowest concentration that induces significant inhibition of growth (inhibition of about 50% or more). As a control, Candida parapsilosis ATCC 22019 obtained from ATCC was used, and the MIC assay of the CLSI M27-A3 test was performed.

[4] = system: Prototheca zopfii Genotype 1; test: as above; format: cell-based; settings: for MICs: 32 degrees, 72 hours
Procedure: as §1, §2

Prototheca wickerhamii = test: as above; format: cell-based; settings: for MICs: 32 degrees, 72 hours
Procedure: as §1, §2

Prototheca blaskeae = test: as above; format: cell-based; settings: strain NUBS19005, bovine protothecal mastitis; 32 degrees, 72 hours
Procedure: as §1, §2

[5] = system: Candida parapsilosis ATCC 22019; test: MIC assay of the CLSI M27-A3 test, control strain; format: cell-based
Procedure: as §2

prototheca species = test: Overall comparison of anti-algae effect against prototheca species; format: cell-based
Procedure: as §2

[6] = strain A7, bovine protothecal mastitis (GT2)
[7] = strain A8, bovine protothecal mastitis (GT2)
[8] = strain A9, bovine protothecal mastitis (GT2)
[9] = strain A10, bovine protothecal mastitis (GT2)
[10] = strain A11, bovine protothecal mastitis (GT2)
[11] = strain A13, bovine protothecal mastitis (GT2)
[12] = strain A14, bovine protothecal mastitis (GT2)
[13] = strain A15, bovine protothecal mastitis (GT2)
[14] = strain A16, bovine protothecal mastitis (GT2)
[15] = strain A17, bovine protothecal mastitis (GT2)
[16] = strain SAG2021T, type strain of GT2
[17] = strain NUBS19004, environment (GT1)
[18] = strain SAG2063T, type strain of (GT1)
[19] = strain NUBS19001, feline protothecosis
[20] = strain NUBS19002, canine protothecosis
[21] = strain NUBS19003, canine protothecosis

For `C[C@@H]1[C@H](O)[C@@H](C)/C=C/C=C/C=C/C=C/C=C/C=C/C=C/[C@H](O[C@@H]2O[C@H](C)[C@@H](O)[C@H](N)[C@@H]2O)C[C@@H]2O[C@](O)(C[C@@H](O)C[C@@H](O)[C@H](O)CC[C@@H](O)C[C@@H](O)CC(=O)O[C@H]1C)C[C@H](O)[C@H]2C(=O)O` [AMB, amphotericin B], the “effectiveness against several strains of Prototheca wickerhamii and Prototheca zopfii” value [1] is listed as “not effective”.

For `C[C@@H](c1nc(-c2ccc(C#N)cc2)cs1)[C@@](Cn1cncn1)(OCOP(=O)(O)O)c1ccc(F)cc1F` [Fosravuconazole, fosravuconazole], the “conversion of prodrug to ravuconazole” value [2] is given as “rapidly converted to ravuconazole”.

`CCC(C)n1ncn(-c2ccc(N3CCN(c4ccc(OCC5COC(Cn6cncn6)(c6ccc(Cl)cc6Cl)O5)cc4)CC3)cc2)c1=O` (stereo not shown) [ITZ, itraconazole] showed an MICs [3, 6] of 32 mg/L, an MICs [3, 7] of 4 mg/L and an MICs [3, 8] of over 32 mg/L. It also gave an MICs [3, 9] of over 32 mg/L, an MICs [3, 10] of over 32 mg/L and an MICs [3, 11] of over 32 mg/L. It also gave an MICs [3, 12] of over 32 mg/L, an MICs [3, 13] of over 32 mg/L and an MICs [3, 14] of 8 mg/L. For the same molecule, the MICs [3, 15] was 4 mg/L, the MICs [3, 16] was over 32 mg/L and the MICs ([4]; strain I1, environment (GT1)) was 2 mg/L. For the same molecule, the MICs ([4]; strain I3, environment (GT1)) was 0.25 mg/L, the MICs [4, 17] was 1 mg/L and the MICs ([4]; strain S2, environment (GT1)) was 32 mg/L. It also gave an MICs ([4]; strain S3, environment (GT1)) of 8 mg/L, an MICs ([4]; strain S29, environment (GT1)) of over 32 mg/L and an MICs ([4]; strain S36, environment (GT1)) of 16 mg/L. It also gave an MICs ([4]; strain S42, environment (GT1)) of 8 mg/L, an MICs [4, 18] of 1.5 mg/L and an MICs ([4]; strain W3, environment (GT1)) of 4 mg/L. The MICs ([4]; strain W20, environment (GT1)) was 4 mg/L, the MICs (Prototheca wickerhamii; [19]) was over 32 mg/L and the MICs (Prototheca wickerhamii; [20]) was over 32 mg/L. The MICs (Prototheca wickerhamii; [21]) was 4 mg/L, the MICs (Prototheca blaskeae) was 32 mg/L and the MIC ([5]; Lodderomyces parapsilosis, ATCC22019) was 0.125 µg/mL (≈ 0.177 µM).

For gentamicin, the “effectiveness against several strains of Prototheca wickerhamii and Prototheca zopfii” value [1] is given as “not effective”.

In the case of ravuconazole [RVZ], the “effectiveness (anti-algae effect) compared with itraconazole against pathogen of prototheca species” value (prototheca species; versus itraconazole) is reported as “more effective”, the “activity compared with publicly known results of kanamycin, gentamicin, amphotericin B and itraconazole against prototheca species” value (prototheca species; versus publicly known results of KM, GM, AMB, ITZ) is reported as “stronger activity” and the MICs [3, 6] is reported as 0.125 mg/L. It also gave an MICs [3, 7] of 0.03 mg/L, an MICs [3, 8] of 0.03 mg/L and an MICs [3, 9] of 0.03 mg/L. It also gave an MICs [3, 10] of 0.25 mg/L, an MICs [3, 11] of 0.125 mg/L and an MICs [3, 12] of 0.03 mg/L. For the same molecule, the MICs [3, 13] was 0.0625 mg/L, the MICs [3, 14] was 0.03 mg/L and the MICs [3, 15] was 0.25 mg/L. It also gave an MICs [3, 16] of 0.125 mg/L, an MICs ([4]; strain I1, environment (GT1)) of 0.03 mg/L and an MICs ([4]; strain I3, environment (GT1)) of 0.03 mg/L. It also gave an MICs [4, 17] of 0.03 mg/L, an MICs ([4]; strain S2, environment (GT1)) of 0.03 mg/L and an MICs ([4]; strain S3, environment (GT1)) of 0.03 mg/L. The MICs ([4]; strain S29, environment (GT1)) was 0.03 mg/L, the MICs ([4]; strain S36, environment (GT1)) was 0.03 mg/L and the MICs ([4]; strain S42, environment (GT1)) was 0.03 mg/L. The MICs [4, 18] was 0.03 mg/L, the MICs ([4]; strain W3, environment (GT1)) was 0.03 mg/L and the MICs ([4]; strain W20, environment (GT1)) was 0.03 mg/L. For the same molecule, the “MIC of 11 isolates of Genotype 1 of Prototheca zopfii” value ([4]; summary over 11 isolates of Genotype 1) was 0.03 µg/mL, the MICs (Prototheca wickerhamii; [19]) was 0.03 mg/L and the MICs (Prototheca wickerhamii; [20]) was 0.03 mg/L. The MICs (Prototheca wickerhamii; [21]) was 0.03 mg/L, the “MIC of the three clinical isolates of Prototheca wickerhamii” value (Prototheca wickerhamii; summary over three clinical isolates) was 0.03 µg/mL and the MICs (Prototheca blaskeae) was 0.03 mg/L. For the same molecule, the “MIC for the control strain Candida parapsilosis ATCC 22019” value [5] was 0.03 µg/mL.
